Structures are written as SMILES.

In this assay the test system is STZ-induced type 2 diabetic mice. Put plainly: In vivo effect on glucose levels in diabetic mice. To be noted: 10 mg/kg/day in diet; relative to control mice and mice treated with rosiglitazone (5 mg/kg/day in diet). As for the experimental part: The leftmost black solid bar represents diabetic control mice, the second from left black solid bar represents mice treated for one week with rosiglitazone at 5 mg/kg/day; the third from left black solid bar represents mice treated for one week with Compound 174 at 10 mg/kg/day; the fourth from left black solid bar represents mice treated for one week with Compound 174 at 1 mg/kg/day; and the white bar represents nondiabetic control mice. The y-axis indicates non-fasting glucose levels (mg/dl).
Five-week-old male ICR mice were purchased from Taconic Farm (Germantown, N.Y.) and placed on a “western diet” containing 45% (kcal) fat from lard and 0.12% (w/w) cholesterol. After 3 weeks of feeding, the mice were injected once with low dose streptozocin (STZ, ip 75-100 mg/kg) to induce partial insulin deficiency. […] The diabetic mice were then placed in one of groups: (1) a non-treated diabetic control group, (2) a group treated with rosiglitazone (5 mg/kg/day in diet); (3) a group treated with Compound 174(10/mg/kg in diet) for four weeks; and (4) a group treated with Compound 174 (1/mg/kg in diet) for four weeks.

For `Nc1cc(CN2CCC(C(=O)N3CCC(n4c(-c5ccc(F)c(F)c5)nc5cccnc54)CC3)CC2)ccn1` [Compound 174], the HbA1C levels entry was “significantly reduced” and the non-fasting glucose levels entry is given as “significantly reduced”.
